Experimental data taken from ChEMBL document CHEMBL3259629, “Discovery and optimization of piperidyl-1,2,3-triazole ureas as potent, selective, and in vivo-active inhibitors of α/β-hydrolase domain containing 6 (ABHD6)” (J Med Chem, 2013).

Legend:
Conditions in all cases: Neuro2a, 3 nM
[1] = biological target: T1, Hormone-sensitive lipase (Mus musculus) (UniProt P54310)
T1 sequence (whole entry): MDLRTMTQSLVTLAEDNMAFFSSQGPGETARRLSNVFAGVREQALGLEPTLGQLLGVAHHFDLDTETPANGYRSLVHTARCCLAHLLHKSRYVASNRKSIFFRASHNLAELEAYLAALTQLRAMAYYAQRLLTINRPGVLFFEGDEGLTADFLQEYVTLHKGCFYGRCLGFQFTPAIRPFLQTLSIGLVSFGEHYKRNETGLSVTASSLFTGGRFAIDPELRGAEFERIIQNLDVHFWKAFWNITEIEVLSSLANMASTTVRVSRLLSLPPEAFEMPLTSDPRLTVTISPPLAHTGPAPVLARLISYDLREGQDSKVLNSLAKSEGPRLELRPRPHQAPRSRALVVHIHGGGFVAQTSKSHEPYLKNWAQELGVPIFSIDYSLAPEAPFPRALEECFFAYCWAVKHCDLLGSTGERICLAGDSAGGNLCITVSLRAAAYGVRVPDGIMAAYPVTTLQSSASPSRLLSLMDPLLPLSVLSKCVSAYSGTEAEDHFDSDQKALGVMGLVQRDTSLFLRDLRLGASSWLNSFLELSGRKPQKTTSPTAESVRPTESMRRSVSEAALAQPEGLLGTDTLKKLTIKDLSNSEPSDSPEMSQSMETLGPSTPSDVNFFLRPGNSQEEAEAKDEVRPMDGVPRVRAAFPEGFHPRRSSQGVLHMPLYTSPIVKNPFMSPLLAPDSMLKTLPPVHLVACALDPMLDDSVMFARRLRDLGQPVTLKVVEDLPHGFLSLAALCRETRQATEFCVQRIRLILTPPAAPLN
Description: Inhibition of Lipe in mouse Neuro2a cells at 3 nM after 4 hrs by ABPP-SILAC assay

[2] = biological target: T2, Triacylglycerol hydrolase DDHD2 (Mus musculus) (UniProt Q80Y98)
T2 sequence (whole entry): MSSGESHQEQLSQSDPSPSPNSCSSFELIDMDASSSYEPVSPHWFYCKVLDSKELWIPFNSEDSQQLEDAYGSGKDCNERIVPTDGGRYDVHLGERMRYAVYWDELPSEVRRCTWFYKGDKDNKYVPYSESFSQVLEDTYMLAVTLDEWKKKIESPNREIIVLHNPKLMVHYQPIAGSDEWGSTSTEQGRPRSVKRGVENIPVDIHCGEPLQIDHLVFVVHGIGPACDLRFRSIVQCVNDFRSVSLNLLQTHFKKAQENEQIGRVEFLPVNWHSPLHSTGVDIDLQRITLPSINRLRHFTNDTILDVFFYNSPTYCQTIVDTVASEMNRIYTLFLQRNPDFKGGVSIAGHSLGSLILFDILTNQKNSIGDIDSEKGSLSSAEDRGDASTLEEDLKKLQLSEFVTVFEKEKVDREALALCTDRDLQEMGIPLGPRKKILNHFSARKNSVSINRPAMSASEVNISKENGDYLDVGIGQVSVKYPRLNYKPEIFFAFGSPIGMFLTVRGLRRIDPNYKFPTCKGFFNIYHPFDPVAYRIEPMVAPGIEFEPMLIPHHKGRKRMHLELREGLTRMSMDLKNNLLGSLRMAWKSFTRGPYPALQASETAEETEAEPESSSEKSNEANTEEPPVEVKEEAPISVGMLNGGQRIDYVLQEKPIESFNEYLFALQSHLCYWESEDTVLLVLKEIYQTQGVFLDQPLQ
Description: Inhibition of Ddhd2 in mouse Neuro2a cells at 3 nM after 4 hrs by ABPP-SILAC assay

[3] = biological target: T3, Lysosomal protective protein (Mus musculus) (UniProt P16675)
T3 sequence (whole entry): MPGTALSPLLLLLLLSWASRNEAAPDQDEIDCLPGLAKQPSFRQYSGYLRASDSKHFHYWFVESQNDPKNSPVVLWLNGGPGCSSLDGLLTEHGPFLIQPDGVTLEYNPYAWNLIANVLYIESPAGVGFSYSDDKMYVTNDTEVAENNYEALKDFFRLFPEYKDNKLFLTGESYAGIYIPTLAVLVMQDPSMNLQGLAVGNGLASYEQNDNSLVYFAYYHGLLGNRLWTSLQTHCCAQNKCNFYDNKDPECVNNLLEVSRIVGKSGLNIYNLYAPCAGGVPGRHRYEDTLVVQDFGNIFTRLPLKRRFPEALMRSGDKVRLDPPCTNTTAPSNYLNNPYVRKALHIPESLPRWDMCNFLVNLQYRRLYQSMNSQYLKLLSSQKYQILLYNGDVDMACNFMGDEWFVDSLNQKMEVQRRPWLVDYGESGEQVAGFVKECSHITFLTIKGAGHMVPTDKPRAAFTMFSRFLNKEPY
Description: Inhibition of Ctsa in mouse Neuro2a cells at 3 nM after 4 hrs by ABPP-SILAC assay

[4] = biological target: T4, Lysosomal Pro-X carboxypeptidase (Mus musculus) (UniProt Q7TMR0)
T4 sequence (whole entry): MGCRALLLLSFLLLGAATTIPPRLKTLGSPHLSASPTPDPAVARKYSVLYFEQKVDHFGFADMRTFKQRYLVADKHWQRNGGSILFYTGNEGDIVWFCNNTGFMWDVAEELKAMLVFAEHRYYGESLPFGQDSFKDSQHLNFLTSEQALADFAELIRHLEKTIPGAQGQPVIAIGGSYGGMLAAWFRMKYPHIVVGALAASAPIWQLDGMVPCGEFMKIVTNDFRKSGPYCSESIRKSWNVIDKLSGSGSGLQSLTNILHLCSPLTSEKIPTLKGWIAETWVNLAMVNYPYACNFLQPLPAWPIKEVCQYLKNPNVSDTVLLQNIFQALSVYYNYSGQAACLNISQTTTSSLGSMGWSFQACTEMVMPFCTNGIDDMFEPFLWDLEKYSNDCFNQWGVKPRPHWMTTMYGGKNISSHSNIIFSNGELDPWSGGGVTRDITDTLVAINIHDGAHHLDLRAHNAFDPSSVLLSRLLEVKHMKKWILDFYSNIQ
Description: Inhibition of Prcp in mouse Neuro2a cells at 3 nM after 4 hrs by ABPP-SILAC assay

[5] = biological target: T5, Phospholipase DDHD1 (Mus musculus) (UniProt Q80YA3)
T5 sequence (whole entry): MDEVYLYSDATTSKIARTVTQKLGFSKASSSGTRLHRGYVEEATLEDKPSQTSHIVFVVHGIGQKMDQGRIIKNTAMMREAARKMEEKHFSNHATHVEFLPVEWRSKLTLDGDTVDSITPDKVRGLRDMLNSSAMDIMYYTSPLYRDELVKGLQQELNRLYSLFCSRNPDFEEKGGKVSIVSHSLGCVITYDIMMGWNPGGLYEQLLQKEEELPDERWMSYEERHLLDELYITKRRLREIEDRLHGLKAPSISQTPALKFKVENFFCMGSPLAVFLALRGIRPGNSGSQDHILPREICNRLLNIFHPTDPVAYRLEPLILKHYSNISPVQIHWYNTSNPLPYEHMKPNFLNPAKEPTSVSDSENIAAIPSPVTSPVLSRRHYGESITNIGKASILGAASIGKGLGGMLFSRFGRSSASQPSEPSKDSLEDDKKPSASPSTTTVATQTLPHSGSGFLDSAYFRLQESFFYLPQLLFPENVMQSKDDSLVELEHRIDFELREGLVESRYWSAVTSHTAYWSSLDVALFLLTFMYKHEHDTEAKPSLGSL
Description: Inhibition of Ddhd1 in mouse Neuro2a cells at 3 nM after 4 hrs by ABPP-SILAC assay

Measured: inhibition

O=C(c1cccc(-c2ccc(-c3cn(C(=O)N4CCCCC4c4ccccc4)nn3)cc2)c1)N1CCCCC1 (racemic)
< 50%: [1] | [2] | [3] | [4] | [5]

O=C(O)c1cccc(-c2ccc(-c3cn(C(=O)N4CCCCC4Cc4ccccc4)nn3)cc2)c1 (racemic)
< 50%: [1] | [2] | [3] | [4] | [5]

O=C(N1CCCCC1c1ccccc1)n1cc(-c2ccc(-c3cccc(CO)c3)cc2)nn1 (racemic)
< 50%: [1] | [2] | [3] | [4] | [5]
